7 compounds from patent US7008950B1, “Benzofurans as suppressors of neurodegeneration” (Takeda Chemical Industries, Ltd., priority 1997, dated 2006) can be followed below.

Molecules are shown by their SMILES.

For the assay, the system named is human neuroblastoma SK—N—SH cells. As to the kind of experiment: Cell protective activity against β-amyloid 25-35-induced neurotoxicity (Alamar Blue cell viability). Conditions: test compound 1 μM with β-amyloid 25-35 10 μM; rhIFN-γ-pretreated SK—N—SH cells; viability by Alamar Blue after 3 days; [(A−B)/(C−B)]×100. Type of assay: cell-based. An excerpt: Evaluation of cell protective activity against β-amyloid neurotoxicity in human neuroblastoma SK—N—SH cells.
• Human neuroblastoma SK—N—SH cells: obtained from American Type Tissue Culture Collection (ATCC). DMEM/F-12 medium: obtained from Nikken Biological Medicine Laboratory Co. • Ca^++ and Mg^++ free phosphate-buffered saline (PBS(−)): obtained Nikken Biological Medicine Laboratory Co. • N2 supplement™, and EDTA solution: obtained from Gibco BRL Co. • Fetal calf serum, and mixture of penicillin (5000 U/mL) and streptomycin (5 mg/mL): obtained from Bio Whittaker Co. • Recombinant human interferon gamma (rhIFN-γ): obtained from Wako Pure Chemical Co. • Alamar Blue™ reagent: obtained from AccuMed International, Inc. • Culture flasks: manufactured by Falcon Co. Collagen-coated, 96-well multi-plate: manufactured by Iwaki Glass Co. • β-amyloid 25-35: obtained from Bachem AG. • Other reagents: commercially-available special-grade chemicals. b) Test Method (1) Cultivation of SK—N—SH cells
SK—N—SH cells were sub-cultured in DMEM/F12 medium containing 5% FCS, 0.5% N2 supplement™, 1% of mixture of penicillin (5000 U/mL) and streptomycin (5 mg/mL), under 10 t CO2 and 90% air, using CO2 incubator. At sub-confluent condition, cells were harvested from culture flask with PBS(−) containing 2.5 mM EDTA, and plated at a density of 1.0×10^4 cells/100 μl of culture medium/well in collagen-coated 96-well multi-plate. The next day, 80 μl of culture medium was substituted with DMEM/F12 medium (containing neither FCS nor N2 supplement) containing 1.25 ng/mL of rhIFN-γ, and after 24 hr cultivation cells were used for cell toxicity assay mentioned below.
(2) Measurement of cell protective activity of test compounds against β-amyloid 25-35-induced neurotoxicity
After pretreatment of SK—N—SH cells with rhIFN-γ in collagen-coated 96 well multi-plate, cell toxicity assay was started by addition of β-amyloid 25-35 and test compound. Briefly, 80 μl of culture medium was removed, and 40 μl of β-amyloid 25-35 and 40 μl of test compound were added to cultures at the same time. The final concentrations of β-amyloid 25-35 and test compounds were 10 μM and 1 μM, respectively.
The test compound was dissolved at 10 mM in dimethylsulfoxide (DMSO) and diluted in DMEM/F12 medium. β-amyloid 25-35 was dissolved at 5 mM in sterile pure water, and stored at −80° C. Immediately before use, the stock solution β-amyloid 25-35 was diluted in DMEM/F12 medium and sonicated.
(3) Evaluation of cell protective activity of test compound
Cell viability was assessed by the reduction of Alamar Blue™ reagents, 3 days after starting of the cell toxicity assay. Briefly, 20 μl of culture medium was substituted with 20 μl of Alamar Blue™ reagents and incubated 4 hours. Absorbances were determined at wavelengths of 570 nm and 600 nm using a plate reader (MTP-32 Micro-plate Reader, manufactured by Corona Co.). Amount of reduced Alamar Blue reagents was determined by subtracting absorbance600 from absorbance570. The cell protective activity of the test compound was estimated according to the following equation: • Cell protective activity of compound [(A−B)/(C−B)]×100 (%) 20 where; • A: cell viability of the group treated with both the test compound and β-amyloid • B: cell viability of the group treated with β-amyloid only • C: cell viability of the control group Results
Cell viability of the group treated with both the test compound and β-amyloid was compared with that 30 group treated with β-amyloid only using Dunnett's test.
Cell viability of each group was determined using at least 4 culture well.

Regarding `Cc1c(C)c2c(c(C)c1OCc1ccccc1)CC(C)(CN1CCN(c3ccccc3)CC1)O2` (stereo not shown) [Example 3, 5-Benzyloxy-2,4,6,7-tetramethyl-2-(4-phenyl-1-piperazinyl)methyl-2,3-dihydrobenzofuran], the “Cell Protecting Activity (%)” value was 39.4%.

As for `Cc1c(C)c2c(c(C)c1OCCC(c1ccccc1)c1ccccc1)C(c1ccc(C(C)C)cc1)C(C)(C)O2` (stereo not shown) [Example 14, 5-(3,3-Diphenylpropyloxy)-3-(4-isopropylphenyl)-2,2,4,6,7-pentamethyl-2,3-dihydrobenzofuran], the “Cell Protecting Activity (%)” value worked out at 44.2%.

As for `Cc1c(C)c2c(c(C)c1OCC=Cc1ccccc1)C(c1ccc(C(C)C)cc1)C(C)(C)O2` (stereo not shown) [Example 12, 3-(4-Isopropylphenyl)-2,2,4,6,7-pentamethyl-5-(3-phenyl-2-propen-1-yloxy)-2,3-dihydrobenzofuran], the “Cell Protecting Activity (%)” value is listed as 44.8%.

For the compound `Cc1c(C)c2c(c(C)c1OCc1ccccc1)C(c1ccc(N(C)C)cc1)C(C)(C)O2` (stereo not shown) [Example 2, 5-Benzyloxy-3-[4-(dimethylamino)phenyl]-2,2,4,6,7-pentamethyl-2,3-dihydrobenzofuran], the “Cell Protecting Activity (%)” value is listed as 27.9%.

As to `Cc1c(C)c2c(c(C)c1OCCc1ccccc1)C(c1ccc(C(C)C)cc1)C(C)(C)O2` (stereo not shown) [Example 25, 3-(4-Isopropylphenyl)-2,2,4,6,7-pentamethyl-5-(2-phenylethyl)oxy-2,3-dihydrobenzofuran], the “Cell Protecting Activity (%)” value was 47.0%.

On to `COc1ccc(COc2c(C)c(C)c3c(c2C)C(c2ccc(N4CCOCC4)cc2)C(C)(C)O3)cc1` (stereo not shown) [Example 7, 5-(4-Methoxybenzyloxy)-3-[4-(4-morpholinyl)phenyl]-2,2,4,6,7-pentamethyl-2,3-dihydrobenzofuran], for which the “Cell Protecting Activity (%)” value was found to be 27.3%.

In the case of `Cc1c(C)c2c(c(C)c1OCc1ccccc1)C(c1ccc(C(C)C)cc1)C(C)(C)O2` (stereo not shown) [Example 1, 5-Benzyloxy-3-(4-isopropylphenyl)-2,2,4,6,7-pentamethyl-2,3-dihydrobenzofuran], the “Cell Protecting Activity (%)” value is listed as 30.7%.
